Assay results from the CATMoS acute toxicity set (Mansouri et al. 2021).

Assay: GHS categories as the set defines them, by LD50: 1 up to 5, 2 up to 50, 3 up to 300, 4 up to 2000, 5 above 2000 mg/kg
Settings: rat; in vivo; po

COCC(=O)O[C@]1(CCN(C)CCCc2nc3ccccc3[nH]2)CCc2cc(F)ccc2[C@@H]1C(C)C
GHS category: 4

Fc1ccccc1C1c2cc3c(cc2CCN1c1ccccc1)OCO3 (stereo not given)
GHS category: 4

NC(=O)Oc1ccccc1C(=O)Oc1ccccc1[N+](=O)[O-]
GHS category: 5

CCN(CC)CCOC(=O)c1ccc(-n2c(C)nc3ccccc3c2=O)cc1
GHS category: 5

CCC1COC(=O)O1 (stereo not given)
GHS category: 5

Cc1nnc(SCC2=C(C(=O)O)N3C(=O)[C@@H](NC(=O)Cn4cnnn4)[C@H]3SC2)s1
GHS category: 5

OCC1=C[C@H](N[C@H]2C[C@H](CO)[C@@H](O[C@@H]3O[C@H](CO)[C@@H](O)[C@H](O)[C@H]3O)[C@H](O)[C@H]2O)[C@H](O)[C@@H](O)[C@@H]1O
GHS category: 5

O=S(=O)(O)c1ccc(N2N=C(c3ccc(Cl)cc3)CC2c2ccccc2)cc1 (stereo not given)
GHS category: 5

c1ccc2oc(C3(Cn4cncn4)OCCO3)cc2c1
GHS category: 4

Fc1c(F)c(F)c(Cl)c(F)c1F
GHS category: 5

COC(=O)c1c(C(F)F)nc(C(F)(F)F)c(C2=NCCS2)c1CC(C)C
GHS category: 5

CCCCCCCC(=O)OCCCCCC
GHS category: 5

CN[C@H](CC(N)=O)C(=O)NC(=O)[C@@H](N[C@@H]1C(=O)N2C1SC(C)(C)[C@@H]2C(=O)O)c1ccc(O)cc1 (stereo not given in full)
GHS category: 5

COC(=O)c1ccc(C(=O)OC)c(N=NC(C(C)=O)C(=O)Nc2ccc(NC(=O)C(N=Nc3cc(C(=O)OC)ccc3C(=O)OC)C(C)=O)cc2)c1 (stereo not given)
GHS category: 5

CCCNC(=O)c1cnc2ccc(C)cn2c1=O
GHS category: 3

O=C1NC(=O)C2CC=CCC12 (stereo not given)
GHS category: 5

C=CCNC(=O)Oc1cccc2c1OC(C)(C)O2
GHS category: 4

O=C(Nc1cccc2c(=O)c3c(ccc4c5cc(NC(=O)c6ccccc6)c6c(=O)c7ccccc7c(=O)c6c5[nH]c43)c(=O)c12)c1ccccc1
GHS category: 5

CCCCCC(=O)OC1(C(C)=O)CCC2C3CCC4=CC(=O)CCC4C3CCC21C (stereo not given)
GHS category: 5

CCN(CC)CCNC(C(=O)OCCC(C)C)c1ccccc1 (stereo not given)
GHS category: 4

CCCCCCC(C)(C)c1cc(O)c2c(c1)OC(C)(C)[C@@H]1CCC(=O)C[C@@H]21
GHS category: 4

CC(=O)N(C)C(=O)Oc1cccc2c1OCO2
GHS category: 4

COc1ccc(C(=O)Nc2ccc(C(N)=O)cc2)cc1[N+](=O)[O-]
GHS category: 5

CC(=O)O[C@]1(C(C)=O)CC[C@H]2[C@@H]3C=C(Cl)C4=CC(=O)[C@@H]5C[C@@H]5[C@]4(C)[C@H]3CC[C@@]21C
GHS category: 5

CO[C@@]1(NC(=O)CSC[C@@H](N)C(=O)O)C(=O)N2C(C(=O)O)=C(CSc3nnnn3C)CS[C@@H]21
GHS category: 5

C[C@@H]1CCO[C@@](Cn2cncn2)(c2cc3ccccc3o2)O1
GHS category: 4

CCC=CCC=CCC=CCC=CCCCCC(=O)OCC
GHS category: 5

O=C(O)CN(CC(=O)O)CC(O)CN(CC(=O)O)CC(=O)O
GHS category: 5

CCCCCCC(=O)OC
GHS category: 5

CCOc1ccc(Nc2ccc(C(=C3C=CC(=[N+](CC)Cc4cccc(S(=O)(=O)[O-])c4)C=C3C)c3ccc(N(CC)Cc4cccc(S(=O)(=O)O)c4)cc3C)cc2)cc1
GHS category: 5

O=C(c1ccccc1)c1cc([N+](=O)[O-])ccc1S(=O)(=O)NCCCN1CCOCC1
GHS category: 4

NCCS(=O)(=O)O
GHS category: 5

CCOC(=O)c1cn(C2CC2)c2cc(F)c(F)cc2c1=O
GHS category: 5

FC(F)(F)OC(Cl)C(F)(Cl)Cl (stereo not given)
GHS category: 5

O=C(O)c1cc2ccccc2c(N=Nc2cc(Cl)ccc2Cl)c1O
GHS category: 5

O=c1ccc2cccnc2n1-c1cccc(C(F)(F)F)c1
GHS category: 3

C1CCCCCC2=C(CCCC1)CCCO2
GHS category: 5

Nc1nc(N)nc(Nc2nc(N)nc(N)n2)n1
GHS category: 5

CC(=O)OC[C@H]1O[C@@](COC(C)=O)(O[C@H]2O[C@H](COC(C)=O)[C@@H](OC(C)=O)[C@H](OC(C)=O)[C@H]2OC(C)=O)[C@@H](OC(C)=O)[C@@H]1OC(C)=O
GHS category: 5

O=C1COc2cc(C(=O)c3ccccc3)ccc2N1
GHS category: 5

CCCCC(CC)COP(=O)(Oc1ccccc1)Oc1ccccc1 (stereo not given)
GHS category: 5

CC(C)c1ccc(S(=O)(=O)O)cc1
GHS category: 5

CC12C=CC(=O)C=C1CCC1C2CCC2(C)C(O)CCC12 (stereo not given)
GHS category: 5

CS(=O)(=O)c1ccc(C(=O)C2C(=O)CCCC2=O)c([N+](=O)[O-])c1
GHS category: 5

CC(C)=CCC(C#N)(CCN1CCCCC1)c1cccc2ccccc12 (stereo not given)
GHS category: 4

CC(CCC(=O)O)C(=O)O (stereo not given)
GHS category: 4

O=C(c1ccc(Cl)cc1)N1CCN=C1c1ccccc1
GHS category: 4

CCC(C)(Oc1ccc(Cl)cc1)C(=O)OC1CC(C)CC(C)(C)C1 (stereo not given)
GHS category: 5

O=C1Nc2ccccc2C1=O
GHS category: 5

OCC(CO)(CO)COCC(CO)(CO)CO
GHS category: 5

CCCC(=O)c1ccc2c(c1)OC(C)(C)C(=O)N2C
GHS category: 5

Cc1cc(=O)[nH]c2cc(OCCCN3CCC(Cc4ccccc4)CC3)ccc12
GHS category: 4

CCCCCOC(=O)CC
GHS category: 5

COc1cc(/N=N/c2c(Br)cc([N+](=O)[O-])cc2[N+](=O)[O-])c(NC(C)=O)cc1N(CCOC(C)=O)CCOC(C)=O
GHS category: 5

NC(=O)Oc1ccc(Cl)cc1C(=O)Oc1ccc(Cl)cc1Cl
GHS category: 5
